Measurements taken from the supplement of paper PMC10331698.
± gives the standard deviation of the averaged measurements.

Legend:
Test in all cases: LOEC (log10 uM (lowest observed effect concentration))
[1] = compound: O=C(O)C(F)(F)C(F)(F)C(F)(F)C(F)(F)C(F)(F)C(F)(F)C(F)(F)C(F)(F)Cl [9-Chloro-perfluorononanoic acid]
Experimental: (§1)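 BioMAP Diversity Plus panel in human primary cell co-cultures, 4 concentrations in duplicate blinded samples. Responses are log10 fold change versus DMSO control, processed with tcpl v2.1.0. A hit is called when responses at any concentration exceed the cutoff (the larger of 3*bmad or log10(1.2)); the lowest observed effect concentration (modl_ga, log10 uM) is reported for hits.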

[2] = compound: O=C(O)C(F)(F)C(F)(F)C(F)(F)C(F)(F)C(F)(F)C(F)(F)C(F)(F)C(F)(F)C(F)(F)C(F)(F)C(F)(F)C(F)(F)F [Perfluorotridecanoic acid]
Experimental: as §1

Perfluorooctanamidine = compound: N=C(N)C(F)(F)C(F)(F)C(F)(F)C(F)(F)C(F)(F)C(F)(F)C(F)(F)F [Perfluorooctanamidine]
Experimental: as §1

[3] = compound: CNS(=O)(=O)C(F)(F)C(F)(F)C(F)(F)C(F)(F)C(F)(F)C(F)(F)C(F)(F)C(F)(F)F [N-Methylperfluorooctanesulfonamide]
Experimental: as §1

[4] = compound: O=C(O)C(F)(F)OC(F)(F)C(F)(F)OC(F)(F)C(F)(F)C(F)(F)C(F)(F)F [Perfluoro-3,6-dioxadecanoic acid]
Experimental: as §1

[5] = compound: O=S(=O)(O)C(F)(F)C(F)(F)C(F)(F)C(F)(F)C(F)(F)C(F)(F)C(F)(F)C(F)(F)F [Potassium perfluorooctanesulfonate]
Experimental: as §1

[6] = compound: O=S(=O)(O)C(F)(F)C(F)(F)C(F)(F)C(F)(F)C(F)(F)C(F)(F)C(F)(F)C(F)(F)F [Perfluorooctanesulfonic acid]
Experimental: as §1

[7] = compound: C=CC(=O)OCCC(F)(F)C(F)(F)C(F)(F)C(F)(F)F [2-(Perfluorobutyl)ethyl acrylate]
Experimental: as §1

[8] = compound: O=P(O)(O)CCC(F)(F)C(F)(F)C(F)(F)C(F)(F)C(F)(F)C(F)(F)C(F)(F)C(F)(F)F [((Perfluorooctyl)ethyl)phosphonic acid]
Experimental: as §1

Azathioprine = compound: Cn1cnc([N+](=O)[O-])c1Sc1ncnc2[nH]cnc12 [Azathioprine]
Experimental: as §1

IMphg SRB down
LOEC (log10 uM) [1]: 1.78

IMphg VCAM1 down
LOEC (log10 uM) [1]: 1.78 | LOEC (log10 uM) [2]: 1.22 ± 0.37 | LOEC (log10 uM) (Perfluorooctanamidine): 1.78

KF3CT ICAM1 down
LOEC (log10 uM) [1]: 1.78

KF3CT IL1a down
LOEC (log10 uM) [1]: 1.78 | LOEC (log10 uM) [2]: 1.22 ± 0.37

KF3CT IL8 down
LOEC (log10 uM) [3]: 1.3 | LOEC (log10 uM) [1]: 1.78 | LOEC (log10 uM) [4]: 1.78

KF3CT IP10 down
LOEC (log10 uM) [1]: 1.78 | LOEC (log10 uM) [4]: 1.78

KF3CT MCP1 down
LOEC (log10 uM) [1]: 1.78

KF3CT MIG down
LOEC (log10 uM) [1]: 1.78

KF3CT PAI1 down
LOEC (log10 uM) [5]: 1.78 | LOEC (log10 uM) [1]: 1.3 | LOEC (log10 uM) [6]: 1.78

KF3CT PAI1 up
LOEC (log10 uM) [3]: 0.801 ± 0.71

KF3CT SRB down
LOEC (log10 uM) [1]: 1.78

KF3CT TIMP2 down
LOEC (log10 uM) [1]: 1.78

KF3CT uPA down
LOEC (log10 uM) [1]: 1.78

LPS CD40 down
LOEC (log10 uM) [7]: 1.78 | LOEC (log10 uM) [8]: 1.78 | LOEC (log10 uM) (Perfluorooctanamidine): 1.78

LPS CD69 down
LOEC (log10 uM) [1]: 1.78 | LOEC (log10 uM) [4]: 1.78 | LOEC (log10 uM) (Perfluorooctanamidine): 1.78

LPS IL8 up
LOEC (log10 uM) [1]: 1.54 ± 0.34

LPS MCP1 down
LOEC (log10 uM) [1]: 1.78

LPS MCSF down
LOEC (log10 uM) [2]: 1.48 | LOEC (log10 uM) [8]: 1.78 | LOEC (log10 uM) (Azathioprine): 1.48

LPS MCSF up
LOEC (log10 uM) [1]: 1.78

LPS PGE2 down
LOEC (log10 uM) [1]: 1.78 | LOEC (log10 uM) [4]: 1.3

LPS SRB down
LOEC (log10 uM) [1]: 1.78

LPS TNFa down
LOEC (log10 uM) (Azathioprine): 1.48

LPS Thrombomodulin up
LOEC (log10 uM) [1]: 1.78

LPS VCAM1 down
LOEC (log10 uM) [7]: 1.78 | LOEC (log10 uM) [4]: 1.78 | LOEC (log10 uM) (Perfluorooctanamidine): 1.78 | LOEC (log10 uM) (Azathioprine): 1.22 ± 0.37

MyoF ACTA1 down
LOEC (log10 uM) [1]: 1.78

MyoF CollagenI down
LOEC (log10 uM) [1]: 1.3 | LOEC (log10 uM) [2]: 1.48 | LOEC (log10 uM) [4]: 1.78

MyoF CollagenIII down
LOEC (log10 uM) [1]: 1.3 | LOEC (log10 uM) [4]: 1.78

MyoF CollagenIV up
LOEC (log10 uM) [3]: 0.845 | LOEC (log10 uM) [1]: 1.3 | LOEC (log10 uM) [4]: 1.78

MyoF MMP1 up
LOEC (log10 uM) [1]: 1.78

MyoF PAI1 down
LOEC (log10 uM) [1]: 1.78

MyoF SRB down
LOEC (log10 uM) [1]: 1.78

MyoF TIMP1 down
LOEC (log10 uM) [1]: 1.78

MyoF TIMP1 up
LOEC (log10 uM) [4]: 1.3

MyoF VCAM1 down
LOEC (log10 uM) [1]: 1.54 ± 0.34

SAg CD38 down
LOEC (log10 uM) [7]: 1.78 | LOEC (log10 uM) [1]: 1.78

SAg CD40 down
LOEC (log10 uM) [7]: 1.78 | LOEC (log10 uM) [1]: 1.78 | LOEC (log10 uM) [2]: 1.22 ± 0.37 | LOEC (log10 uM) [8]: 1.78

SAg CD69 down
LOEC (log10 uM) [7]: 1.78 | LOEC (log10 uM) [1]: 1.78 | LOEC (log10 uM) (Azathioprine): 1.48

SAg Eselectin down
LOEC (log10 uM) [7]: 1.78 | LOEC (log10 uM) (Azathioprine): 1.48
